Data reported in US20240368133A1, “Compounds for the Treatment of Pain, in Particular, Neuropathic Pain, and/or Other Diseases or Disorders that are Associated with AT2R and/or AT2R Mediated Signaling” (Confo Therapeutics N.V., priority 2021, published 2024).

Columns and labels:
[1] = Thermodynamic solubility protocol 1 (PBS pH 7.4, citrate buffer pH 3.0); type: physicochemical; settings: 25° C.
Description: In a 8 mL glass vial, 1-2 mg of dry matter of the test compound were mixed with the suitable buffers (phosphate-buffered saline pH 7.4 (138 mM NaCl, 2.7 mM KCl, 10 mM K-phosphate) or 100 mM citrate buffer pH 3.0) to reach a theoretical concentration of 4 mM. The solutions were allowed to further equilibrate at 25° C. on a thermostatic shaker. After 4 and 24 hours of shaking, respectively, the incubation mixtures were filtered through HTS filter plates using a vacuum manifold. The filtrates of test compounds were diluted 2-fold with acetonitrile with 4% DMSO before measuring. In parallel, using a 20 mM DMSO stock solution, compound dilutions in 50% acetonitrile/buffer were prepared to the theoretical concentrations of 0 μM (blank), 10 μM, 25 μM, 50 μM, 100 μM and 200 μM with 2% final DMSO to generate calibration curves.
Ondansetron (Sigma Aldrich USA, cat #03639) was used as a reference to control proper assay performance. 200 μl of each sample were transferred to a 96-well plate and solubility was measured in a 200-550 nm range (in steps of 5 nm). The measurements were performed using a Spectra Max Plus reader in UV-Vis mode. Acquisition and analysis of the data were performed using SoftMax Pro v.5.4 (Molecular Devices) and Excel 2010 data analysis software. Proper absorbance wavelengths for calculations were selected for each compound manually based on absorbance maximums (absolute absorbance unit values for the minimum and maximum concentration points within 0-3 OD range). Each of the final datasets was additionally visually evaluated by the operator and goodness of fit (R2) is calculated for each calibration curve.

[2] = Liver microsomal stability, dog; type: in vitro ADME; settings: male, Beagle, pH 7.4, liver microsomes
Description: Mouse hepatic microsomes were isolated from pooled, perfused livers of male CD1 mice. Rat hepatic microsomes were isolated from pooled, perfused livers of male Sprague Dawley rats. Dog hepatic microsomes were isolated from pooled, perfused livers of male Beagle dogs. The batches of microsomes were tested for quality control using Testosterone, Propranolol and Caffeine as reference compounds.
A 10 mM stock solution of compound in DMSO is diluted three-fold in DMSO. This pre-diluted compound solution is then further diluted to 2 μM in a 50 mM phosphate buffer (PBS, pH 7.4) and pre-warmed at 37° C. This compound dilution is mixed F2 with microsomal/cofactor mix at 37° C. under shaking at 300 rpm. Final reaction conditions are: 100 μL incubation volume, 1 μM of test compound (in duplicate), <0.1% DMSO, 0.5 mg/mL microsomes, 0.6 U/mL Glucose-6-phosphate-dehydrogenase (G6PDH, Roche, 10127671001), 3.3 mM MgCl2 (Sigma, M2670), 3.3 mM glucose-6-phosphate (Sigma, G-7879) and 1.3 mM NADP+ (Sigma, N-0505).
After 60 min of incubation at 300 rpm and 37° C., the reaction was stopped with 3 volumes of STOP solution (acetonitrile/MeOH 2/1 with diclofenac as internal standard). For the time point zero, 3 volumes of STOP solution were added to the compound dilution before the microsome mix was added. Six time points over 60 minutes have been analyzed. The samples of all time points were centrifuged, filtered and the supernatant analyzed by LCMS/MS (systems API4000).
The instrument responses (peak areas/IS peak area) were referenced to the zero time-point samples (considered as 100%) in order to determine the percentage of compound remaining.
Testosterone (1 μM) and Propranolol and Caffeine (1 μM) were used as reference compounds, being unstable and stable compounds respectively. If the microsomal stability values for these controls are not in the range determined by the historical data, the assay is not validated. The solubility of the compound in the final test concentration in 50 mM buffer pH 7.4 is checked by microscope to indicate whether precipitation is observed or not. If a precipitate is observed, no data of microsomal stability is generated.

[3] = Metabolic stability in hepatocytes, dog; type: in vitro ADME; settings: Beagle, pooled cryopreserved hepatocytes, read-out: Dog Clint (μL/min/10^6 cells)
Description: The aim of this assay is to determine the metabolic stability of the compound in hepatocytes (cryopreserved) of different species (mouse CD1, rat Sprague Dawley, dog Beagle). Low hepatocyte stability may result in the formation of unwanted metabolites, high clearance, and therefore is not desirable. The decrease in parent was assessed by measuring the percentage remaining by LC-MS/MS analysis. The batches of hepatocytes were tested for quality control using Testosterone, Umbelliferone and Caffeine as reference compounds.
A 10 mM stock solution of test compound in DMSO was first diluted in DMSO to 3 mM, and then in modified Krebs-Henseleit buffer (Sigma, K3753) to 5 μM. This compound dilution was added to a suspension of pooled cryopreserved hepatocytes (BioIVT) at 37° C. under gentle shaking. […]
After 0, 10, 20, 45, 90, 120 and 180 min of incubation, the reaction was terminated with 3 volumes of MeCN:MeOH (2:1) containing diclofenac as analytical internal standard. Samples were mixed, centrifuged and the supernatant analyzed by LC-MS/MS (systems API4000). […]
Testosterone (1 μM) and Umbelliferone (1 μM) and Caffeine (1 μM) were used as reference compounds, being unstable and stable compounds respectively. If the hepatocyte stability values for these controls are not in the range determined by the historical data, the assay is not validated.

[4] = Thermodynamic solubility protocol 2 (FaSSIF, FeSSIF); type: physicochemical; settings: 25° C.
Description: In a 8 mL glass vial, 1-2 mg of dry matter of the test compound were mixed with the suitable buffers (Fed State Simulated Intestine Fluid (FeSSIF) or Fasted State Simulated Intestine Fluid (FaSSIF)) to reach a theoretical concentration of 4 mM. The solutions were allowed to further equilibrate at 25° C. on a thermostatic shaker. After 4 and 24 hours of shaking, respectively, the incubation mixtures were filtered through HTS filter plates using a vacuum manifold. The filtrates of test compounds were diluted 500-fold with acetonitrile/buffer mixtures with 2% DMSO before measuring. In parallel, using a 20 mM DMSO stock solution, compound dilutions in 50% acetonitrile/buffer (v/v) were prepared to the theoretical concentrations of 0 μM (blank), 10 μM, 25 μM, 50 μM, 100 μM and 200 μM with 2% final DMSO to generate calibration curves. Calibration standards were diluted 100-fold with 50% acetonitrile/water (v/v) mixes before LC-MS/MS measurement (systems API4000 QTRAP).

TSOL pH 3.0 ([1]; time point 4 h) | TSOL pH 7.4 ([1]; time point 4 h) | TSOL pH 3.0 ([1]; time point 24 h) | TSOL pH 7.4 ([1]; time point 24 h) | microsomal CLint at 1 µM [2] | hepatocyte CLint at 1 µM [3] | TSOL FaSSIF pH 6.5 ([4]; time point 4 h) | TSOL FeSSIF pH 5.0 ([4]; time point 4 h) | TSOL FaSSIF pH 6.5 ([4]; time point 24 h) | TSOL FeSSIF pH 5.0 ([4]; time point 24 h) | Compound
≥400 μM | >400 μM | ≥400 μM | >400 μM | < 11.7 µL/min/mg | < 5.1 µL/min/1e6 cells | >400 μM | >400 μM | >400 μM | >400 μM | CC(C)Cc1cc(F)c(-c2nn[nH]n2)c(N2CCN(Cc3cccnn3)[C@@H](C)C2)c1 [Compound A-174, 3-[[(2S)-4-[3-fluoro-5-isobutyl-2-(2H-tetrazol-5-yl)phenyl]-2-methyl-piperazin-1-yl]methyl]pyridazine]
 |  |  |  | < 11.5 µL/min/mg | < 5.1 µL/min/1e6 cells |  |  |  |  | CC(C)Cc1cc(F)c(-c2nn[nH]n2)c(N2CCN(Cc3ccccn3)[C@@H](C)C2)c1 [Compound A-217, (2S)-4-[3-fluoro-5-isobutyl-2-(2H-tetrazol-5-yl)phenyl]-2-methyl-1-(2-pyridylmethyl)piperazine]
